{
  "source": "patent US20160000074A1",
  "about": "“HERBICIDAL COMPOSITION AND METHOD OF USE THEREOF” (SYNGENTA PARTICIPATIONS AG, priority 2013, published 2016)",
  "experiment_in_all_cases": "Turf selectivity evaluation, visual phytotoxicity, glasshouse pots",
  "type_in_all_cases": "in vivo",
  "settings_in_all_cases": "visual evaluation 7, 14, 21, 28 DAA",
  "key": {"[1]": {"system": "Festuca arundinacea (FESAR, Tall Fescue, Farandole)", "description": "(§1) Turf selectivity evaluations were performed on the most important cool-season turf varieties, across 4 application rates with two replications contained within a factorial design. Sarmentine was applied at 0, 1500, 3000, and 6000 g ai ha^−1 on Sep. 11, 2010 using a spray volume of 800 L ha^−1 with 0.2% V/V x-77 adjuvant. The solution was delivered with LU 90-02S Lechler nozzles at 2.58 bars with an application speed of 0.96 km hr^−1.\n(§2) Plants were grown in 9 cm diameter pots using Les Barges soil, previously characterized as containing 25.4% clay; 7.1% loam, 67.5% sand, 7% CaCO3, 2.4% organic matter, and pH 7.5. Pots were fertilized with Oscarna Rasaflor at 100 g m-2 at seeding. Plants were grown throughout the experiment with day/night temperatures of 23° C./15° C. with relative humidity of between 50-60%.\n(§3) Turf species (Table 1) were visually evaluated for symptoms of phytotoxicity (%) using the untreated control as a bench-mark for comparison at 7, 14, 21, and 28 days after application (DAA). Turfgrass species were mown at 13 DAA."}, "[2]": {"system": "Poa annua var. Reptans (POAAN, Annual bluegrass, True Putt)", "description": "as §1, §2, §3"}, "[3]": {"system": "Agrostis stolonifera (AGSST, Creeping Bentgrass, Pennlinks)", "description": "as §1, §2, §3"}, "[4]": {"system": "Lolium perenne (LOLPE, Perennial Ryegrass, Citation Fore)", "description": "as §1, §2, §3"}, "[5]": {"system": "Poa pratensis (POAPR, Kentucky Bluegrass, Midnight star)", "description": "as §1, §2, §3"}, "[6]": {"settings": "rate 1500 g ai ha^-1, grass x rate estimate"}, "[7]": {"settings": "rate 3000 g ai ha^-1, grass x rate estimate"}, "[8]": {"settings": "rate 6000 g ai ha^-1, grass x rate estimate"}},
  "data": [
    {"smiles": "CCCCC/C=C/C=C/C(=O)N1CCCC1", "note": "[sarmentine, N-(2E,4E-Decadienoyl)pyrrolidine]", "values": [
      {"measurement": "Phyto-toxicity Estimate (% of Untreated)", "setting": "[1]; [6]", "result": "14.1 % of Untreated"},
      {"measurement": "Phyto-toxicity Estimate (% of Untreated)", "setting": "[1]; [7]", "result": "22.8 % of Untreated"},
      {"measurement": "Phyto-toxicity Estimate (% of Untreated)", "setting": "[1]; [8]", "result": "31.3 % of Untreated"},
      {"measurement": "Phyto-toxicity Estimate (% of Untreated)", "setting": "[2]; [6]", "result": "35.0 % of Untreated"},
      {"measurement": "Phyto-toxicity Estimate (% of Untreated)", "setting": "[2]; [7]", "result": "53.8 % of Untreated"},
      {"measurement": "Phyto-toxicity Estimate (% of Untreated)", "setting": "[2]; [8]", "result": "83.1 % of Untreated"},
      {"measurement": "Phyto-toxicity Estimate (% of Untreated)", "setting": "[3]; [6]", "result": "13.1 % of Untreated"},
      {"measurement": "Phyto-toxicity Estimate (% of Untreated)", "setting": "[3]; [7]", "result": "19.4 % of Untreated"},
      {"measurement": "Phyto-toxicity Estimate (% of Untreated)", "setting": "[3]; [8]", "result": "27.5 % of Untreated"},
      {"measurement": "Phyto-toxicity Estimate (% of Untreated)", "setting": "[4]; [6]", "result": "15.3 % of Untreated"},
      {"measurement": "Phyto-toxicity Estimate (% of Untreated)", "setting": "[4]; [7]", "result": "27.2 % of Untreated"},
      {"measurement": "Phyto-toxicity Estimate (% of Untreated)", "setting": "[4]; [8]", "result": "46.3 % of Untreated"},
      {"measurement": "Phyto-toxicity Estimate (% of Untreated)", "setting": "[5]; [6]", "result": "6.3 % of Untreated"},
      {"measurement": "Phyto-toxicity Estimate (% of Untreated)", "setting": "[5]; [7]", "result": "8.8 % of Untreated"},
      {"measurement": "Phyto-toxicity Estimate (% of Untreated)", "setting": "[5]; [8]", "result": "21.3 % of Untreated"}
    ]}
  ]
}
